# Read-outs that look alike come from different tables or passages of the source.
# What was measured:
# EGFR Del19/C797S = EGFR Del19/C797S (Homo sapiens, UniProt P00533, C797S/DEL746-750); assay: Biochemical EGFR kinase inhibition assay (Lance Ultra TR-FRET), double mutant del19/C797S
# Procedure, shortened: (§1)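 In this biochemical assay, phosphorylation after a one-hour room-temperature reaction was detected with europium-labelled anti-phosphopeptide antibody at 2 nM final concentration.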
# EGFR wildtype (WT) = EGFR wildtype (WT) (Homo sapiens, UniProt P00533); assay: Biochemical EGFR kinase inhibition assay (Lance Ultra TR-FRET), wildtype
# Chain of EGFR wildtype (WT) (P00533 25-1210): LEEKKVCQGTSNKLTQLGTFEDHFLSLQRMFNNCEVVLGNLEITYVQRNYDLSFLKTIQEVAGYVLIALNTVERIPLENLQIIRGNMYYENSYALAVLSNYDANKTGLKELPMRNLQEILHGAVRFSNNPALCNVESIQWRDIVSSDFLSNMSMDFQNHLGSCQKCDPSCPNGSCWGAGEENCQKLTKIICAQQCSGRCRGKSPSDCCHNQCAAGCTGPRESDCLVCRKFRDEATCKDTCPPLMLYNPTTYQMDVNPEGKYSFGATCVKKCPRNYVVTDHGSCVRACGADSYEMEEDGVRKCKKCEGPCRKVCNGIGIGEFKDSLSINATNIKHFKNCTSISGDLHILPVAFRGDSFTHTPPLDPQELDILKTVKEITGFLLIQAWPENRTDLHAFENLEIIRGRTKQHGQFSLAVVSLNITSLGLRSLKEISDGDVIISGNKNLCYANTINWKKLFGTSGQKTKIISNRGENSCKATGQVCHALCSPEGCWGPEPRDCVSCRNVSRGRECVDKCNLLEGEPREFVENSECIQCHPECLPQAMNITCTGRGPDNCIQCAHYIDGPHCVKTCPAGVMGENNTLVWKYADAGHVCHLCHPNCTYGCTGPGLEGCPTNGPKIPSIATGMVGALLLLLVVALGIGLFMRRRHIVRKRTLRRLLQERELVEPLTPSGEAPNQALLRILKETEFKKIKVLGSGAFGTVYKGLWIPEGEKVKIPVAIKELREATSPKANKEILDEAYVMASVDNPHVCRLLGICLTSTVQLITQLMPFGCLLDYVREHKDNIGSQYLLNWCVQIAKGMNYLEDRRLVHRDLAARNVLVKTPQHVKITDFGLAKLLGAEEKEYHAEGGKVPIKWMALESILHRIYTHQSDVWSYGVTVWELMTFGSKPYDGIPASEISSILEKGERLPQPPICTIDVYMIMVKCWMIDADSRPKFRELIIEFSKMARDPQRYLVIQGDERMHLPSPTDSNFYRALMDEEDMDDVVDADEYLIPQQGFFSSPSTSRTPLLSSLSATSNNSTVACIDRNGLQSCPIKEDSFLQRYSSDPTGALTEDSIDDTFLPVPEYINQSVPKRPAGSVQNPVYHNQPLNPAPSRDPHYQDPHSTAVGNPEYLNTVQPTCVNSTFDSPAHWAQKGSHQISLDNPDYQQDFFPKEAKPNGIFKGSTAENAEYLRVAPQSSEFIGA
# Procedure, shortened: as §1
# EGFR L858R/C797S = EGFR L858R/C797S (Homo sapiens, UniProt P00533, C797S/L858R); assay: Biochemical EGFR kinase inhibition assay (Lance Ultra TR-FRET), double mutant L858R/C797S
# Procedure, shortened: as §1
# EGFR Del19/T790M/C797S = EGFR Del19/T790M/C797S (Homo sapiens, UniProt P00533, C797S/DEL746-750/T790M); assay: Biochemical EGFR kinase inhibition assay (Lance Ultra TR-FRET), triple mutant del19/T790M/C797S
# Chain of EGFR Del19/T790M/C797S (P00533 with tags, fused parts or gaps DEL746-750/T790M/C797S): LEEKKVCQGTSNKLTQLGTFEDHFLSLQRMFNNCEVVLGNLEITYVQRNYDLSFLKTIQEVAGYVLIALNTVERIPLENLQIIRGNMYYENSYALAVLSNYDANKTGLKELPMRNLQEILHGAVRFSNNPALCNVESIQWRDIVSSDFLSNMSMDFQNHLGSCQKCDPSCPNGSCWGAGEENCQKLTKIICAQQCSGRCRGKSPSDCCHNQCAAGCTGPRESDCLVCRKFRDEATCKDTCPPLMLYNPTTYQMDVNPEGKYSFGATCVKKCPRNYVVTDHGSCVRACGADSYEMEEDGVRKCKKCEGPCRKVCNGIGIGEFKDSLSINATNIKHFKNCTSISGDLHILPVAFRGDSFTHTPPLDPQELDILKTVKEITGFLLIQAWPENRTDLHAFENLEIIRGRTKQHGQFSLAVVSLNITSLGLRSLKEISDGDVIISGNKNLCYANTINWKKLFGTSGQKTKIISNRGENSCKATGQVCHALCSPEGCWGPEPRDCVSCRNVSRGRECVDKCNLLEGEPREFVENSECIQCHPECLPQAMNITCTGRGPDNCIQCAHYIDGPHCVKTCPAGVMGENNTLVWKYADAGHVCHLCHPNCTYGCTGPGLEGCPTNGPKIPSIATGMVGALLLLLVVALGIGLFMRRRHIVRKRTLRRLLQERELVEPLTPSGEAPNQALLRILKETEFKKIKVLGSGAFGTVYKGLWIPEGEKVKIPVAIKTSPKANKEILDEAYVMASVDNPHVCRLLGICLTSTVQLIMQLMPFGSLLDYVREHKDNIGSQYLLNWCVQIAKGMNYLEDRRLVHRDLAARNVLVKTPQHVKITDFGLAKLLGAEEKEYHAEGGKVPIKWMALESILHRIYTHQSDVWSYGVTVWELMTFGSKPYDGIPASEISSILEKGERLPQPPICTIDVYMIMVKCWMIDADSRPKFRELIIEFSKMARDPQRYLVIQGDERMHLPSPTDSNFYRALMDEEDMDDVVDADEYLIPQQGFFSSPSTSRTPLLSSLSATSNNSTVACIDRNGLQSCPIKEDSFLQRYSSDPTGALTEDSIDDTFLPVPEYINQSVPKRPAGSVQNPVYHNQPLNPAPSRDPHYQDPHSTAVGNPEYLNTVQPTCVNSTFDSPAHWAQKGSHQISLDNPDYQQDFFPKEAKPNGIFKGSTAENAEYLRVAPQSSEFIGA
# Procedure, shortened: as §1
# EGFR L858R/T790M/C797S = EGFR L858R/T790M/C797S (Homo sapiens, UniProt P00533, C797S/L858R/T790M); assay: Biochemical EGFR kinase inhibition assay (Lance Ultra TR-FRET), triple mutant L858R/T790M/C797S
# Chain of EGFR L858R/T790M/C797S (P00533 25-1210 T790M/C797S/L858R): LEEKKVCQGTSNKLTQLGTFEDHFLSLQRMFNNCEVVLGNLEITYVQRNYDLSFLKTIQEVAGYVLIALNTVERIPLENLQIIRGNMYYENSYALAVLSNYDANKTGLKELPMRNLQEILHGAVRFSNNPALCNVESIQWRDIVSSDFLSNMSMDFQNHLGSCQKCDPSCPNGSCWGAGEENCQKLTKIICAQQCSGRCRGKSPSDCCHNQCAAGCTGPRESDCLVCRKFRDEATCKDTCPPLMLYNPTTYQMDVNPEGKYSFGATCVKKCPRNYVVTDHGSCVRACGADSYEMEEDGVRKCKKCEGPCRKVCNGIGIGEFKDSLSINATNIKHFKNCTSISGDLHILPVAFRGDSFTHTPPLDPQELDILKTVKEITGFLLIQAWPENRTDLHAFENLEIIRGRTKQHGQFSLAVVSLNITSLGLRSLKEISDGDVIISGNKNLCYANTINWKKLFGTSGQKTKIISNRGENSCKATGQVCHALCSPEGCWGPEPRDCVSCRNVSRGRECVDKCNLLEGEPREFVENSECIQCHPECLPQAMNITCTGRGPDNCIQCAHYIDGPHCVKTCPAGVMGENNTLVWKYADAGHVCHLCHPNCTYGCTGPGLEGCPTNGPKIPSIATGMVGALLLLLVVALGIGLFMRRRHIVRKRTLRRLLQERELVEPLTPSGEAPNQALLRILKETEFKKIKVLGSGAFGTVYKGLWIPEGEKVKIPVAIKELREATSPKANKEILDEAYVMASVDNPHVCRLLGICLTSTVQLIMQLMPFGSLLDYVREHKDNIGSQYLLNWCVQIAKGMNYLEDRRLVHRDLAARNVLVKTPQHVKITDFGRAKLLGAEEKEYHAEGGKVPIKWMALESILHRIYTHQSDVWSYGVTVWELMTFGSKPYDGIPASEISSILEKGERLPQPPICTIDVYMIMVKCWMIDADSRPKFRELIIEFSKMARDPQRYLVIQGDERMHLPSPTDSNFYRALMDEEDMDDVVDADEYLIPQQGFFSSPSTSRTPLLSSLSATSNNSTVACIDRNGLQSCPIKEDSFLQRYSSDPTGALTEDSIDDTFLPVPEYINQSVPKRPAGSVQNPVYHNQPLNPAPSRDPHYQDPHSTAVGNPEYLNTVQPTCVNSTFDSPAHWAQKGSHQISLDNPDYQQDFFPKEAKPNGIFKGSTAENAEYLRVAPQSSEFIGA
# Procedure, shortened: as §1
# [1] = IC50 Del19/C797S (nM), 100 μM ATP
# [2] = IC50 L858R/C797S (nM), 100 μM ATP
# [3] = IC50 Del19/T790M/C797S (nM), 100 μM ATP
# [4] = IC50 L858R/T790M/C797S (nM), 100 μM ATP
# [5] = ATP at Km, read-out: IC50 Del19/C797S (nM), Km ATP
# [6] = ATP at Km, read-out: IC50 WT (nM), Km ATP
# [7] = ATP at Km, read-out: IC50 L858R/C797S (nM), Km ATP
# [8] = ATP at Km, read-out: IC50 Del19/T790M/C797S (nM), Km ATP
# [9] = ATP at Km, read-out: IC50 L858R/T790M/C797S (nM), Km ATP
# [10] = Km ATP, read-out: IC50 Del19/C797S (nM) Km ATP
# [11] = Km ATP, read-out: IC50 WT (nM) Km ATP
# [12] = Km ATP, read-out: IC50 L858R/C797S (nM) Km ATP
# [13] = Km ATP, read-out: IC50 Del19/T790M/C797S (nM) Km ATP
# [14] = Km ATP, read-out: IC50 L858R/T790M/C797S (nM) Km ATP
# [15] = Km ATP, read-out: IC50 Del19/C797S (nM), Km ATP
# [16] = Km ATP, read-out: IC50 WT (nM), Km ATP
# [17] = Km ATP, read-out: IC50 L858R/C797S (nM), Km ATP
# [18] = Km ATP, read-out: IC50 Del19/T790M/C797S (nM), Km ATP
# [19] = Km ATP, read-out: IC50 L858R/T790M/C797S (nM), Km ATP
# Chain of EGFR Del19/C797S (P00533 with tags, fused parts or gaps DEL746-750/C797S): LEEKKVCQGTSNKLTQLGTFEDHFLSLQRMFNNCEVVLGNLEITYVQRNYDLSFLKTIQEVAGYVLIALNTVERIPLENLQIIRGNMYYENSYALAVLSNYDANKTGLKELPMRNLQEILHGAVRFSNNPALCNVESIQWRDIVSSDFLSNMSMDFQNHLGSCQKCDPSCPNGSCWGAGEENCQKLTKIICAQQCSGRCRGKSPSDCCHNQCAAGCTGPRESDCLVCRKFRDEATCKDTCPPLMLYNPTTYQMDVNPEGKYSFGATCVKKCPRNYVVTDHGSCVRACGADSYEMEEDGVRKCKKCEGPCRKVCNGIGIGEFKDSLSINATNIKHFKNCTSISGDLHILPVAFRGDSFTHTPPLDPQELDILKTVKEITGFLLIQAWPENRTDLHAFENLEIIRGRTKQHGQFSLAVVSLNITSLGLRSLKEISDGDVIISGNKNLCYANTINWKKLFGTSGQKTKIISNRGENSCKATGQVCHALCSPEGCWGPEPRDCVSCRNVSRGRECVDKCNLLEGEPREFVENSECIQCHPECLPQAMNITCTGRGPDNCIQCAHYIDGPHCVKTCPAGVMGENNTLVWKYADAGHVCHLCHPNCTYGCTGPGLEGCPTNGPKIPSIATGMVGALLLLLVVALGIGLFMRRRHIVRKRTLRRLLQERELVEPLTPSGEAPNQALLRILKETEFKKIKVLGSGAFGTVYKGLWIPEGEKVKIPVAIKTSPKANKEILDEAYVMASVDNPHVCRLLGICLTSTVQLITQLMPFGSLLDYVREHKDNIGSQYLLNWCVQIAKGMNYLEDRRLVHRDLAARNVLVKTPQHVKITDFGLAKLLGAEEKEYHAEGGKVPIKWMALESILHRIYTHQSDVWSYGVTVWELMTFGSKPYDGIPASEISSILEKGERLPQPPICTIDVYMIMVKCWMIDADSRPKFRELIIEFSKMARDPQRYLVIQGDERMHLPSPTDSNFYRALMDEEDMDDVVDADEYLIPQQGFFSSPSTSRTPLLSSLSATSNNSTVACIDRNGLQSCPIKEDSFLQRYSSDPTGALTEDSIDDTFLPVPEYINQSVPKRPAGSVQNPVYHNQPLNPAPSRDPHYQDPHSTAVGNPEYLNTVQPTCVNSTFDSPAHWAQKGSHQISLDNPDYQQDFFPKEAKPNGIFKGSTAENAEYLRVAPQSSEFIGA
SMILES,IC50 (EGFR Del19/C797S; [1]) [nM],"IC50 (EGFR wildtype (WT); IC50 WT (nM), 100 μM ATP) [nM]",IC50 (EGFR L858R/C797S; [2]) [nM],IC50 (EGFR Del19/T790M/C797S; [3]) [nM],IC50 (EGFR L858R/T790M/C797S; [4]) [nM],IC50 (EGFR Del19/C797S; [5]) [nM],IC50 (EGFR wildtype (WT); [6]) [nM],IC50 (EGFR L858R/C797S; [7]) [nM],IC50 (EGFR Del19/T790M/C797S; [8]) [nM],IC50 (EGFR L858R/T790M/C797S; [9]) [nM],IC50 (EGFR Del19/C797S; [10]) [nM],IC50 (EGFR wildtype (WT); [11]) [nM],IC50 (EGFR L858R/C797S; [12]) [nM],IC50 (EGFR Del19/T790M/C797S; [13]) [nM],IC50 (EGFR L858R/T790M/C797S; [14]) [nM],IC50 (EGFR Del19/C797S; [15]) [nM],IC50 (EGFR wildtype (WT); [16]) [nM],IC50 (EGFR L858R/C797S; [17]) [nM],IC50 (EGFR Del19/T790M/C797S; [18]) [nM],IC50 (EGFR L858R/T790M/C797S; [19]) [nM]
"CC(O)CC#Cc1cnc(Nc2ccnc(-c3cnn(S(=O)(=O)C4CC4)c3)n2)cc1N1CCC(C)(CO)CC1 (stereo not shown) [Example 287, 5-(6-((2-(1-(Cyclopropylsulfonyl)-1H-pyrazol-4-yl)pyrimidin-4-yl)amino)-4-(4-(hydroxymethyl)-4-methylpiperidin-1-yl)pyridin-3-yl)pent-4-yn-2-ol]",1.6,3190,8.9,0.1,0.3,–,–,–,–,–,–,–,–,–,–,–,–,–,–,–
"O=S(=O)(C1CC1)n1cc(-c2nccc(Nc3cc(N[C@H]4CC[C@@H](O)CC4)c(C#Cc4ncc(CN5CCOCC5)cn4)cn3)n2)cn1 [Example 194, (1s,4s)-4-((2-((2-(1-(Cyclopropylsulfonyl)-1H-pyrazol-4-yl)pyrimidin-4-yl)amino)-5-((5-(morpholinomethyl)pyrimidin-2-yl)ethynyl)pyridin-4-yl)amino)cyclohexan-1-ol]",3.3,> 10000,169,0.5,0.7,2.2,26.1,3.4,0.5,0.2,–,–,–,–,–,–,–,–,–,–
"CC(C)Nc1cc(Nc2ccnc(-c3cnn(S(=O)(=O)C4CC4)c3)n2)ncc1C#Cc1cnn(CCF)c1 [Example 20, N^2-(2-(1-(Cyclopropylsulfonyl)-1H-pyrazol-4-yl)pyrimidin-4-yl)-5-((1-(2-fluoroethyl)-1H-pyrazol-4-yl)ethynyl)-N^4-isopropylpyridine-2,4-diamine]",61.5,> 10000,–,2.4,1.6,–,–,–,–,–,23.1,517,20.4,1.2,1.3,–,–,–,–,–
"CN(C)C[C@@H]1CCCN(c2cc(Nc3ccnc(-c4cnn(S(=O)(=O)C5CC5)c4)n3)ncc2C#Cc2cnn(CCF)c2)C1 [Example 385, (S)-2-(1-(Cyclopropylsulfonyl)-1H-pyrazol-4-yl)-N-(4-(3-((dimethylamino)methyl)piperidin-1-yl)-5-((1-(2-fluoroethyl)-1H-pyrazol-4-yl)ethynyl)pyridin-2-yl)pyrimidin-4-amine]",11.2,> 10000,37.6,0.7,2.1,–,–,–,–,–,–,–,–,–,–,–,–,–,–,–
"CS(=O)(=O)N1CCC(C#Cc2cnc(Nc3ccnc(-c4cnn(S(=O)(=O)C5CC5)c4)n3)cc2NCC2CCC(O)CC2)C1 (stereo not shown) [Example 398, (1 r,4r)-4-(((2-((2-(1-(Cyclopropylsulfonyl)-1H-pyrazol-4-yl)pyrimidin-4-yl)amino)-5-((1-(methylsulfonyl)pyrrolidin-3-yl)ethynyl)pyridin-4-yl)amino)methyl)cyclohexan-1-ol]",44.3,> 10000,971,14.9,29.3,–,–,–,–,–,–,–,–,–,–,16.6,294,17.8,26.7,24.7
"CN(C)C(=O)c1cccc(C#Cc2cnc(Nc3ccnc(-c4cnn(S(=O)(=O)C5CC5)c4)n3)cc2N2CCC(C)(CO)CC2)n1 [Example 264, 6-((6-((2-(1-(Cyclopropylsulfonyl)-1H-pyrazol-4-yl)pyrimidin-4-yl)amino)-4-(4-(hydroxymethyl)-4-methylpiperidin-1-yl)pyridin-3-yl)ethynyl)-N,N-dimethylpicolinamide]",1.8,> 10000,14.1,0.9,0.8,1,9.9,1.3,0.7,0.3,–,–,–,–,–,–,–,–,–,–
"CC(=O)N1CCC(n2cc(C#Cc3cnc(Nc4ccnc(-c5cnn(S(=O)(=O)C6CC6)c5)n4)cc3N[C@H]3CC[C@@H](O)CC3)cn2)CC1 [Example 109, 1-(4-(4-((6-((2-(1-(Cyclopropylsulfonyl)-1H-pyrazol-4-yl)pyrimidin-4-yl)amino)-4-(((1 s, 4s)-4-hydroxycyclohexyl)amino)pyridin-3-yl)ethynyl)-1H-pyrazol-1-yl)piperidin-1-yl)ethan-1-one]",3,> 10000,9.1,1,1.4,–,–,–,–,–,2.3,10.4,1.6,0.9,0.7,–,–,–,–,–
"CC1(CO)CCN(c2cc(Nc3ccnc(-c4cnn(S(=O)(=O)C5CC5)c4)n3)ncc2C#Cc2cnc(CN3CCOCC3)s2)CC1 [Example 192, (1-(2-((2-(1-(Cyclopropylsulfonyl)-1H-pyrazol-4-yl)pyrimidin-4-yl)amino)-5-((2-(morpholinomethyl)thiazol-5-yl)ethynyl)pyridin-4-yl)-4-methylpiperidin-4-yl)methanol]",1.8,1480,4.5,1.5,1.3,1.1,6.1,2.1,1,0.4,–,–,–,–,–,–,–,–,–,–

# Results, then the compound that gave them:
IC50 (EGFR Del19/C797S; [1]) [nM],"IC50 (EGFR wildtype (WT); IC50 WT (nM), 100 μM ATP) [nM]",IC50 (EGFR L858R/C797S; [2]) [nM],IC50 (EGFR Del19/T790M/C797S; [3]) [nM],IC50 (EGFR L858R/T790M/C797S; [4]) [nM],IC50 (EGFR Del19/C797S; [5]) [nM],IC50 (EGFR wildtype (WT); [6]) [nM],IC50 (EGFR L858R/C797S; [7]) [nM],IC50 (EGFR Del19/T790M/C797S; [8]) [nM],IC50 (EGFR L858R/T790M/C797S; [9]) [nM],IC50 (EGFR Del19/C797S; [10]) [nM],IC50 (EGFR wildtype (WT); [11]) [nM],IC50 (EGFR L858R/C797S; [12]) [nM],IC50 (EGFR Del19/T790M/C797S; [13]) [nM],IC50 (EGFR L858R/T790M/C797S; [14]) [nM],IC50 (EGFR Del19/C797S; [15]) [nM],IC50 (EGFR wildtype (WT); [16]) [nM],IC50 (EGFR L858R/C797S; [17]) [nM],IC50 (EGFR Del19/T790M/C797S; [18]) [nM],IC50 (EGFR L858R/T790M/C797S; [19]) [nM],SMILES
50.8,> 10000,35.6,0.7,2.6,–,–,–,–,–,–,–,–,–,–,–,–,–,–,–,"Cn1cc(C#Cc2cnc(Nc3ccnc(-c4cnn(S(=O)(=O)C5CC5)c4)n3)cc2N2CCC(NCCO)CC2)cn1 [Example 131, 2-((1-(2-((2-(1-(Cyclopropylsulfonyl)-1H-pyrazol-4-yl)pyrimidin-4-yl)amino)-5-((1-methyl-1H-pyrazol-4-yl)ethynyl)pyridin-4-yl)piperidin-4-yl)amino)ethan-1-ol]"
8.2,> 10000,86.8,1.2,1.2,–,–,–,–,–,–,–,–,–,–,3.7,40.8,14.5,1,0.6,"Cn1cc(C#Cc2cnc(Nc3ccnc(-c4cnn(S(=O)(=O)C5CC5)c4)n3)cc2N2CCC(F)(CNCCF)CC2)cn1 [Example 383, 2-(1-(Cyclopropylsulfonyl)-1H-pyrazol-4-yl)-N-(4-(4-fluoro-4-(((2-fluoroethyl)amino)methyl)piperidin-1-yl)-5-((1-methyl-1H-pyrazol-4-yl)ethynyl)pyridin-2-yl)pyrimidin-4-amine]"
–,–,–,–,–,–,–,–,–,–,112,881,143,5.7,11.2,–,–,–,–,–,"Cn1cc(C#Cc2cnc(Nc3ccnc(-c4cnn(S(=O)(=O)C5CC5)c4)n3)cc2NC2CCCCC2)cn1 [Example 2, N^4-Cyclohexyl-N^2-(2-(1-(cyclopropylsulfonyl)-1H-pyrazol-4-yl)pyrimidin-4-yl)-5-((1-methyl-1H-pyrazol-4-yl)ethynyl)pyridine-2,4-diamine]"
24.7,> 10000,172,1.6,10.4,–,–,–,–,–,–,–,–,–,–,–,–,–,–,–,"Cn1cc(C#Cc2cnc(Nc3ccnc(-c4cnn(S(=O)(=O)C5CC5)c4)n3)cc2N2CCCC(F)C2)cn1 (stereo not shown) [Example 70, 2-(1-(Cyclopropylsulfonyl)-1H-pyrazol-4-yl)-N-(4-(3-fluoropiperidin-1-yl)-5-((1-methyl-1H-pyrazol-4-yl)ethynyl)pyridin-2-yl)pyrimidin-4-amine]"

# — US11981658B2, “Substituted aminopyridine compounds as EGFR inhibitors” (YUHAN CORPORATION, priority 2021, dated 2024)
